Experimental data: the supplement of paper PMC10307832

Key:
Assay in all cases: relative viability (nuclei count vs DMSO), 5 days (fraction); higher = more cells survive
Adavosertib + Alpelisib = compound: C=CCn1c(=O)c2cnc(Nc3ccc(N4CCN(C)CC4)cc3)nc2n1-c1cccc(C(C)(C)O)n1 [Adavosertib] + Cc1nc(NC(=O)N2CCC[C@H]2C(N)=O)sc1-c1ccnc(C(C)(C)C(F)(F)F)c1 [Alpelisib] (partner 2 µM)
How it was run: (§1)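 Relative viability divides the nuclei count in treated wells by that in vehicle wells. Lung cancer cell lines were seeded in 1536-well plates, dosed by pin tool the next day, and fixed and stained after 5 days in one step with final 0.05% Triton X-100, 1% formaldehyde and 1 ug/ml Hoechst. Dosing was a single drug or a fixed anchor-drug dose plus five library-drug doses (not always all listed) in √10 steps, and values are medians of duplicate plates imaged at 4×.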

Adavosertib + Decitabine = compound: C=CCn1c(=O)c2cnc(Nc3ccc(N4CCN(C)CC4)cc3)nc2n1-c1cccc(C(C)(C)O)n1 [Adavosertib] + Nc1ncn([C@H]2C[C@H](O)[C@@H](CO)O2)c(=O)n1 [Decitabine] (partner 2 µM)
How it was run: as §1

Nelarabine + Lapatinib = compound: COc1nc(N)nc2c1ncn2[C@@H]1O[C@H](CO)[C@@H](O)[C@@H]1O [Nelarabine] + CS(=O)(=O)CCNCc1ccc(-c2ccc3ncnc(Nc4ccc(OCc5cccc(F)c5)c(Cl)c4)c3c2)o1 [Lapatinib] (partner 2 µM)
How it was run: as §1

Nelarabine + Alpelisib = compound: COc1nc(N)nc2c1ncn2[C@@H]1O[C@H](CO)[C@@H](O)[C@@H]1O [Nelarabine] + Cc1nc(NC(=O)N2CCC[C@H]2C(N)=O)sc1-c1ccnc(C(C)(C)C(F)(F)F)c1 [Alpelisib] (partner 2 µM)
How it was run: as §1

Cell Line | relative viability (Adavosertib + Alpelisib; first compound 0.01 µM) | relative viability (Adavosertib + Alpelisib; first compound 0.03162 µM) | relative viability (Adavosertib + Alpelisib; first compound 0.1 µM) | relative viability (Adavosertib + Alpelisib; first compound 0.3162 µM) | relative viability (Adavosertib + Decitabine; first compound 0.01 µM) | relative viability (Adavosertib + Decitabine; first compound 0.03162 µM) | relative viability (Adavosertib + Decitabine; first compound 0.1 µM) | relative viability (Adavosertib + Decitabine; first compound 0.3162 µM) | relative viability (Nelarabine + Lapatinib; first compound 0.01 µM) | relative viability (Nelarabine + Lapatinib; first compound 0.03162 µM) | relative viability (Nelarabine + Lapatinib; first compound 0.1 µM) | relative viability (Nelarabine + Lapatinib; first compound 0.3162 µM) | relative viability (Nelarabine + Lapatinib; first compound 1 µM) | relative viability (Nelarabine + Alpelisib; first compound 0.01 µM) | relative viability (Nelarabine + Alpelisib; first compound 0.03162 µM) | relative viability (Nelarabine + Alpelisib; first compound 0.1 µM) | relative viability (Nelarabine + Alpelisib; first compound 0.3162 µM) | relative viability (Nelarabine + Alpelisib; first compound 1 µM)
NCI-H727 | 0.545 | 0.593 | 0.629 | 0.577 | 0.843 | 0.845 | 0.899 | 0.909 | 0.909 | 0.896 | 0.922 | 0.74 | 0.829 | 0.683 | 0.572 | 0.632 | 0.625 | 0.571
NCI-H2009 | 1.13 | 1.22 | 1.13 | 1.17 | 0.362 | 0.419 | 0.414 | 0.37 | 1.04 | 1.03 | 0.869 | 1.07 | 1.03 | 1.25 | 1.32 | 1.15 | 1.2 | 1.14
LC-2-ad | 0.768 | 0.84 | 0.791 | 0.804 | 0.696 | 0.733 | 0.87 | 0.889 | 1.28 | 1.03 | 0.991 | 1.06 | 1.08 | 0.959 | 0.825 | 0.937 | 0.734 | 0.928
NCI-H2085 | 1.02 | 0.993 | 0.969 | 0.975 | 0.547 | 0.504 | 0.574 | 0.47 | 0.889 | 0.804 | 0.74 | 0.754 | 0.835 | 1.06 | 0.992 | 0.94 | 1.01 | 1.02
NCI-H661 | 0.492 | 0.968 | 0.503 | 0.595 | 0.595 | 0.577 | 0.489 | 0.4 | 0.497 | 0.644 | 0.556 | 0.502 | 0.509 | 0.497 | 0.834 | 0.701 | 0.772 | 0.455
H3255 | 0.648 | 0.689 | 0.716 | 0.668 | 0.636 | 0.694 | 0.609 | 0.674 | 0.248 | 0.267 | 0.226 | 0.235 | 0.201 | 0.859 | 0.897 | 0.644 | 0.687 | 0.75
NCI-H1793 | 0.746 | 0.6 | 0.752 | 0.637 | 0.37 | 0.477 | 0.521 | 0.358 | 0.827 | 0.945 | 0.83 | 0.933 | 0.727 | 0.748 | 0.736 | 0.625 | 0.68 | 0.693
NCI-H838 | 1.01 | 1.01 | 0.996 | 1.08 | 0.516 | 0.53 | 0.612 | 0.497 | 1.38 | 1.07 | 0.934 | 1.16 | 1.14 | 1.29 | 0.769 | 1.07 | 1.11 | 1.02
NCI-H460 | 0.543 | 0.518 | 0.374 | 0.21 | 0.569 | 0.449 | 0.512 | 0.393 |  | 1.76 | 1.84 | 1.62 | 1.27 | 1.03 | 0.411 | 0.565 | 0.66 | 0.371
PC-14 | 0.944 | 0.883 | 0.948 | 0.493 | 0.249 | 0.226 | 0.259 | 0.101 | 0.327 | 0.342 | 0.307 | 0.328 | 0.353 | 0.857 | 0.97 | 1.02 | 1.04 | 0.947
LXF-289 | 1.08 | 1.01 | 1.09 | 1.07 | 0.362 | 0.411 | 0.399 | 0.358 | 0.97 | 0.883 | 0.884 | 0.941 | 0.903 | 1.19 | 1.05 | 1.01 | 1.11 | 1.05
UMC-11 | 1.03 | 1.02 | 1.18 | 1.04 | 0.646 | 0.606 | 0.608 | 0.654 | 1.05 | 0.863 | 1.02 | 1.02 | 1.14 | 1.1 | 0.597 | 0.909 | 1.02 | 0.96
A-427 | 1.08 | 1.11 | 1.1 | 1.04 | 0.53 | 0.554 | 0.55 | 0.469 | 1.15 | 0.973 | 1.14 | 1.1 | 1.11 | 0.851 | 1.06 | 1.11 | 1.07 | 1.05
LOU-NH91 | 0.704 | 0.758 | 0.731 | 0.66 | 0.819 | 0.821 | 0.798 | 0.852 | 0.817 | 0.633 | 0.692 | 0.775 | 0.788 | 0.74 | 0.704 | 0.661 | 0.706 | 0.738
RERF-LC-KJ | 0.855 | 0.784 | 0.764 | 0.793 | 0.669 | 0.718 | 0.775 | 0.714 | 0.912 | 0.99 | 1.01 | 0.88 | 0.876 | 0.944 | 0.889 | 0.909 | 0.861 | 1.09
NCI-H1666 | 0.85 | 0.889 | 0.934 | 0.796 | 0.629 | 0.616 | 0.73 | 0.703 | 0.711 | 0.604 | 0.57 | 0.675 | 0.646 | 0.99 | 0.917 | 0.957 | 1.05 | 0.883
NCI-H322M |  | 0.77 | 0.711 | 0.543 | 0.724 | 0.67 | 0.698 | 0.526 | 0.653 | 0.581 | 0.529 | 0.604 | 0.602 | 0.926 | 0.792 | 0.677 | 0.772 | 0.836
HCC-366 | 0.47 | 0.435 | 0.501 | 0.509 | 0.369 | 0.35 | 0.377 | 0.277 | 1.46 | 0.952 | 1.23 | 1.2 | 1.17 | 0.468 | 0.267 | 0.308 | 0.517 | 0.47
